Test results: ChEMBL document CHEMBL6083206, “SLL-1A-16 suppresses proliferation and induces autophagy in non-small-cell lung cancer cells via the AKT/mTOR signaling pathway” (RSC Med Chem, 2024)

Experiment: Toxicity in Balb/c nude mouse xenografted with human A549 cells assessed as reduction in body weight at 25 mg/kg, ip administered for 14 days
Format: organism-based
Conditions: in vivo, 336 h, time 14 day

Cl.Nc1ccn([C@@H]2O[C@H](CO)[C@@H](O)C2(F)F)c(=O)n1 [GEMCITABINE HYDROCHLORIDE]
Activity: Toxic
